Key:
Assay type in all cases: cell-based
Set-up in all cases: unit not given here
Acin = assay: in vitro antibacterial activity, agar dilution (Acin)
Experimental: (§1) *minimum inhibitory concentrations were determined by the Agardilution

Citro = assay: in vitro antibacterial activity, agar dilution (Citro)
Experimental: as §1

Proteus rett = assay: in vitro antibacterial activity, agar dilution (Proteus rett)
Experimental: as §1

Enterbacter Aerogenes = assay: in vitro antibacterial activity, agar dilution (Enterobacter aerogenes)
Experimental: as §1

H. Influ. = assay: in vitro antibacterial activity, agar dilution (H. influ.)
Experimental: as §1

Proteus morg = assay: in vitro antibacterial activity, agar dilution (Proteus morg)
Experimental: as §1

E. coli = assay: in vitro antibacterial activity, agar dilution (E. coli)
Experimental: as §1

Klebsiella = assay: in vitro antibacterial activity, agar dilution (Klebsiella)
Experimental: as §1

Serratia = assay: in vitro antibacterial activity, agar dilution (Serratia)
Experimental: as §1

Proteus incon = assay: in vitro antibacterial activity, agar dilution (Proteus incon)
Experimental: as §1

Staphylococcus Epi = assay: in vitro antibacterial activity, agar dilution (Staphylococcus epi)
Experimental: as §1

Streptococcus A = assay: in vitro antibacterial activity, agar dilution (Streptococcus A)
Experimental: as §1

Shig. sonn = assay: in vitro antibacterial activity, agar dilution (Shig. sonn); settings: strain N9
Experimental: as §1

Salmonella = assay: in vitro antibacterial activity, agar dilution (Salmonella)
Experimental: as §1

Staphylococcus Aureus = assay: in vitro antibacterial activity, agar dilution (Staphylococcus aureus)
Experimental: as §1

Streptococcus D = assay: in vitro antibacterial activity, agar dilution (Streptococcus D)
Experimental: as §1

Streptococcus pn = assay: in vitro antibacterial activity, agar dilution (Streptococcus pn); settings: strain PARK
Experimental: as §1

Enterbacter Cloacea = assay: in vitro antibacterial activity, agar dilution (Enterobacter cloacae)
Experimental: as §1

Pseudomonas = assay: in vitro antibacterial activity, agar dilution (Pseudomonas)
Experimental: as §1

Cn1c([N+](=O)[O-])cnc1-c1nc(C2=C(C(=O)O)N3C(=O)[C@@H](NC(=O)/C(=N\O)c4csc(N)n4)[C@H]3CC2)cs1 [Example 33, 7β-[(2-Aminothiazol-4-yl)-Z-hydroxyiminoacetylamino]-1-carba-(1-dethia)-3-[2-(4-nitro-3-methylimidazol-2-yl)thiazol-4-yl]-3-cephem-4-carboxylicacid]
minimum inhibitory concentration (Acin; strain AC12): 128
minimum inhibitory concentration (Citro; strain CF17): 4
minimum inhibitory concentration (Proteus rett; strain C24): .06
minimum inhibitory concentration (Enterbacter Aerogenes; strain C32): 1
minimum inhibitory concentration (Enterbacter Aerogenes; strain EB17): 1
minimum inhibitory concentration (H. Influ.; res, strain 76): .015
minimum inhibitory concentration (H. Influ.; sens, strain C.L.): .06
minimum inhibitory concentration (Proteus morg; strain PR15): 4
minimum inhibitory concentration (E. coli; strain EC14): 1
minimum inhibitory concentration (E. coli; strain N10): 2
minimum inhibitory concentration (E. coli; strain TEM): 1
minimum inhibitory concentration (Klebsiella; strain KAE): 2
minimum inhibitory concentration (Klebsiella; strain X26): .015
minimum inhibitory concentration (Klebsiella; strain X68): 1
minimum inhibitory concentration (Serratia; strain SE3): 16
minimum inhibitory concentration (Serratia; strain X99): 2
minimum inhibitory concentration (Proteus incon; strain PR33): .25
minimum inhibitory concentration (Staphylococcus Epi; strain 222): 1
minimum inhibitory concentration (Staphylococcus Epi; strain 270): 4
minimum inhibitory concentration (Streptococcus A; strain C203): < .008
minimum inhibitory concentration (Shig. sonn): 2
minimum inhibitory concentration (Salmonella; strain 1335): 2
minimum inhibitory concentration (Salmonella; strain X514): .5
minimum inhibitory concentration (Staphylococcus Aureus; strain S13E): 4
minimum inhibitory concentration (Staphylococcus Aureus; strain V41): .5
minimum inhibitory concentration (Staphylococcus Aureus; strain X1.1): .06
minimum inhibitory concentration (Staphylococcus Aureus; strain X400): > 128
minimum inhibitory concentration (Streptococcus D; strain 2041): 1
minimum inhibitory concentration (Streptococcus D; strain X66): 128
minimum inhibitory concentration (Streptococcus pn): .015
minimum inhibitory concentration (Enterbacter Cloacea; strain 265A): 16
minimum inhibitory concentration (Enterbacter Cloacea; strain EB5): 1

CON=C(C(=O)NC1C(=O)N2C(C(=O)[O-])=C(c3csc(-c4ccc[n+](C)c4)n3)CCC12)c1csc(N)n1 (stereo not drawn) [Example 34, 7β-[(2-aminothiazol-4-yl)-Z-methoximinoacetylamino]-1-carba-(1-dethia)-3-[2-(1-methyl-3-pyridyl)thiazol-4-yl]-3-cephem-4-carboxylic acid]
minimum inhibitory concentration (Acin; strain AC12): 128
minimum inhibitory concentration (Citro; strain CF17): .015
minimum inhibitory concentration (Proteus rett; strain C24): .03
minimum inhibitory concentration (Enterbacter Aerogenes; strain C32): .03
minimum inhibitory concentration (Enterbacter Aerogenes; strain EB17): .03
minimum inhibitory concentration (H. Influ.; res, strain 76): .015
minimum inhibitory concentration (H. Influ.; sens, strain C.L.): .015
minimum inhibitory concentration (Proteus morg; strain PR15): .06
minimum inhibitory concentration (E. coli; strain EC14): .015
minimum inhibitory concentration (E. coli; strain N10): .03
minimum inhibitory concentration (Klebsiella; strain KAE): .25
minimum inhibitory concentration (Klebsiella; strain X26): < .008
minimum inhibitory concentration (Klebsiella; strain X68): .06
minimum inhibitory concentration (Serratia; strain SE3): .125
minimum inhibitory concentration (Serratia; strain X99): .06
minimum inhibitory concentration (Proteus incon; strain PR33): .03
minimum inhibitory concentration (Staphylococcus Epi; strain 222): 4
minimum inhibitory concentration (Staphylococcus Epi; strain 270): 16
minimum inhibitory concentration (Streptococcus A; strain C203): .015
minimum inhibitory concentration (Shig. sonn): .06
minimum inhibitory concentration (Salmonella; strain 1335): .06
minimum inhibitory concentration (Salmonella; strain X514): .015
minimum inhibitory concentration (Staphylococcus Aureus; strain S13E): > 128
minimum inhibitory concentration (Staphylococcus Aureus; strain V41): 8
minimum inhibitory concentration (Staphylococcus Aureus; strain X1.1): 1
minimum inhibitory concentration (Staphylococcus Aureus; strain X400): 128
minimum inhibitory concentration (Streptococcus D; strain 2041): 128
minimum inhibitory concentration (Streptococcus D; strain X66): > 128
minimum inhibitory concentration (Streptococcus pn): .015
minimum inhibitory concentration (Enterbacter Cloacea; strain 265A): 4
minimum inhibitory concentration (Enterbacter Cloacea; strain EB5): .125

CO/N=C(\C(=O)N[C@@H]1C(=O)N2C(C(=O)O)=C(c3csc(-c4ccc(O)c(O)c4)n3)CC[C@H]12)c1csc(N)n1 [Example 40, Sodium 7β-[(2-aminothiazol-4-yl)-Z-methoximinoacetylamino]-1-carba-(1-dethia)-3-2-(3,4-dihydroxyphenyl)thiazol-4-yl-3-cephem-4-carboxylate]
minimum inhibitory concentration (Acin; strain AC12): 4
minimum inhibitory concentration (Acin; strain AC12, retest): 2
minimum inhibitory concentration (Citro; strain CF17): 4
minimum inhibitory concentration (Citro; strain CF17, retest): 4
minimum inhibitory concentration (Proteus rett; strain C24): .125
minimum inhibitory concentration (Proteus rett; strain C24, retest): .25
minimum inhibitory concentration (Pseudomonas; strain PS18): 64
minimum inhibitory concentration (Pseudomonas; strain PS18, retest): 64
minimum inhibitory concentration (Pseudomonas; strain PS72, retest): 128
minimum inhibitory concentration (Pseudomonas; strain X239, retest): 128
minimum inhibitory concentration (Pseudomonas; strain X528): 8
minimum inhibitory concentration (Pseudomonas; strain X528, retest): 16
minimum inhibitory concentration (Enterbacter Aerogenes; strain C32): .5
minimum inhibitory concentration (Enterbacter Aerogenes; strain C32, retest): .5
minimum inhibitory concentration (Enterbacter Aerogenes; strain EB17): .03
minimum inhibitory concentration (Enterbacter Aerogenes; strain EB17, retest): .06
minimum inhibitory concentration (H. Influ.; res, strain 76): .015
minimum inhibitory concentration (H. Influ.; res, strain 76, retest): .03
minimum inhibitory concentration (H. Influ.; sens, strain C.L.): .125
minimum inhibitory concentration (H. Influ.; sens, strain C.L., retest): .125
minimum inhibitory concentration (Proteus morg; strain PR15): 4
minimum inhibitory concentration (Proteus morg; strain PR15, retest): 4
minimum inhibitory concentration (E. coli; strain EC14): .06
minimum inhibitory concentration (E. coli; strain EC14, retest): .06
minimum inhibitory concentration (E. coli; strain N10): .125
minimum inhibitory concentration (E. coli; strain N10, retest): .125
minimum inhibitory concentration (E. coli; strain TEM): .06
minimum inhibitory concentration (E. coli; strain TEM, retest): .03
minimum inhibitory concentration (Klebsiella; strain KAE): 8
minimum inhibitory concentration (Klebsiella; strain KAE, retest): 4
minimum inhibitory concentration (Klebsiella; strain X26): .015
minimum inhibitory concentration (Klebsiella; strain X26, retest): .03
minimum inhibitory concentration (Klebsiella; strain X68): .06
minimum inhibitory concentration (Klebsiella; strain X68, retest): .06
minimum inhibitory concentration (Serratia; strain SE3): 1
minimum inhibitory concentration (Serratia; strain SE3, retest): 2
minimum inhibitory concentration (Serratia; strain X99): .25
minimum inhibitory concentration (Serratia; strain X99, retest): .125
minimum inhibitory concentration (Proteus incon; strain PR33): .125
minimum inhibitory concentration (Proteus incon; strain PR33, retest): .25
minimum inhibitory concentration (Staphylococcus Epi; strain 222): 16
minimum inhibitory concentration (Staphylococcus Epi; strain 222, retest): 16
minimum inhibitory concentration (Staphylococcus Epi; strain 270): 32
minimum inhibitory concentration (Staphylococcus Epi; strain 270, retest): 16
minimum inhibitory concentration (Streptococcus A; strain C203): .06
minimum inhibitory concentration (Streptococcus A; strain C203, retest): .125
minimum inhibitory concentration (Salmonella; strain 1335): .06
minimum inhibitory concentration (Salmonella; strain 1335, retest): .06
minimum inhibitory concentration (Salmonella; strain X514): .03
minimum inhibitory concentration (Salmonella; strain X514, retest): .03
minimum inhibitory concentration (Staphylococcus Aureus; strain S13E): 64
minimum inhibitory concentration (Staphylococcus Aureus; strain S13E, retest): 64
minimum inhibitory concentration (Staphylococcus Aureus; strain V41): 16
minimum inhibitory concentration (Staphylococcus Aureus; strain V41, retest): 8
minimum inhibitory concentration (Staphylococcus Aureus; strain X1.1): 8
minimum inhibitory concentration (Staphylococcus Aureus; strain X1.1, retest): 8
minimum inhibitory concentration (Staphylococcus Aureus; strain X400): > 128
minimum inhibitory concentration (Staphylococcus Aureus; strain X400, retest): > 128
minimum inhibitory concentration (Streptococcus D; strain 2041): 16
minimum inhibitory concentration (Streptococcus D; strain 2041, retest): 16
minimum inhibitory concentration (Streptococcus D; strain X66): > 128
minimum inhibitory concentration (Streptococcus D; strain X66, retest): > 128
minimum inhibitory concentration (Streptococcus pn): .125
minimum inhibitory concentration (Streptococcus pn; retest): .125
minimum inhibitory concentration (Enterbacter Cloacea; strain 265A): 64
minimum inhibitory concentration (Enterbacter Cloacea; strain 265A, retest): 32
minimum inhibitory concentration (Enterbacter Cloacea; strain EB5): .25
minimum inhibitory concentration (Enterbacter Cloacea; strain EB5, retest): .25

Nc1nc(C2=C(C(=O)O)N3C(=O)[C@@H](NC(=O)[C@H](N)c4ccccc4)[C@H]3CC2)cs1 [Example 41, 7β-(D-phenylglycylamino)-1-carba-(1-dethia)-3-(2-aminothiazol-4-yl)-3-cephem-4-carboxylic acid]
minimum inhibitory concentration (Acin; strain AC12): > 128
minimum inhibitory concentration (Citro; strain CF17): > 128
minimum inhibitory concentration (Proteus rett; strain C24): > 128
minimum inhibitory concentration (Pseudomonas; strain PS18): > 128
minimum inhibitory concentration (Pseudomonas; strain PS72): > 128
minimum inhibitory concentration (Pseudomonas; strain X239): > 128
minimum inhibitory concentration (Pseudomonas; strain X528): > 128
minimum inhibitory concentration (Enterbacter Aerogenes; strain C32): 128
minimum inhibitory concentration (Enterbacter Aerogenes; strain EB17): 128
minimum inhibitory concentration (H. Influ.; res, strain 76): 32
minimum inhibitory concentration (H. Influ.; sens, strain C.L.): 64
minimum inhibitory concentration (Proteus morg; strain PR15): 128
minimum inhibitory concentration (E. coli; strain EC14): 64
minimum inhibitory concentration (E. coli; strain N10): 128
minimum inhibitory concentration (E. coli; strain TEM): 64
minimum inhibitory concentration (Klebsiella; strain KAE): 128
minimum inhibitory concentration (Klebsiella; strain X26): 16
minimum inhibitory concentration (Klebsiella; strain X68): 128
minimum inhibitory concentration (Serratia; strain SE3): 128
minimum inhibitory concentration (Serratia; strain X99): 128
minimum inhibitory concentration (Proteus incon; strain PR33): 128
minimum inhibitory concentration (Staphylococcus Epi; strain 222): 16
minimum inhibitory concentration (Staphylococcus Epi; strain 270): 32
minimum inhibitory concentration (Streptococcus A; strain C203): 2
minimum inhibitory concentration (Salmonella; strain 1335): 128
minimum inhibitory concentration (Salmonella; strain X514): 128
minimum inhibitory concentration (Staphylococcus Aureus; strain S13E): 64
minimum inhibitory concentration (Staphylococcus Aureus; strain V41): 32
minimum inhibitory concentration (Staphylococcus Aureus; strain X1.1): 4
minimum inhibitory concentration (Staphylococcus Aureus; strain X400): > 128
minimum inhibitory concentration (Streptococcus D; strain 2041): > 128
minimum inhibitory concentration (Streptococcus D; strain X66): > 128
minimum inhibitory concentration (Streptococcus pn): 2
minimum inhibitory concentration (Enterbacter Cloacea; strain 265A): > 128
minimum inhibitory concentration (Enterbacter Cloacea; strain EB5): 128

— patent US5179088A, “1-Carba(dethia)cephalosporin antibiotics” (Eli Lilly and Company, priority 1990, dated 1993)
